#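 Test compounds were applied to cells in 96-well plates for 48 hours at 5 doses. GI50 marks 50% less growth. TGI: total growth inhibition.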
# Tests used:
# Assay in all cases: NCI anticancer screen, dose series, 48 h
# [1] = system: MOLT-4 leukemia
# [2] = system: RPMI-8226 leukemia
# [3] = system: SF-295 CNS
# [4] = system: OVCAR-5 ovarian
# [5] = system: SF-539 CNS
# [6] = system: NCI-H522 lung
# [7] = system: SK-MEL-28 melanoma
# [8] = system: BT-549 breast
# [9] = system: HS 578T breast
# [10] = system: NCI-H226 lung
# [11] = system: SR leukemia
# [12] = system: SNB-19 CNS
# [13] = system: UACC-62 melanoma
# [14] = system: CCRF-CEM leukemia
# [15] = system: UACC-257 melanoma
# [16] = system: HL-60(TB) leukemia
# [17] = system: T-47D breast
# [18] = system: CAKI-1 renal
# [19] = system: PC-3 prostate
# [20] = system: SK-OV-3 ovarian
# [21] = system: DU-145 prostate
# [22] = system: UO-31 renal
# [23] = system: HCT-116 colon
# [24] = system: U251 CNS
# [25] = system: NCI-H23 lung
# [26] = system: HOP-92 NSCLC
# [27] = system: HCT-15 colon
# [28] = system: EKVX NSCLC
# [29] = system: TK-10 renal
# [30] = system: A498 renal
# [31] = system: SNB-75 CNS
# [32] = system: ACHN renal
# [33] = system: M14 melanoma
# [34] = system: SW-620 colon
# [35] = system: OVCAR-3 ovarian
# [36] = system: MDA-MB-468 breast
# [37] = system: COLO 205 colon
# [38] = system: SK-MEL-5 melanoma
# [39] = system: MCF7 breast
# [40] = system: HOP-62 NSCLC
# [41] = system: IGROV1 ovarian
# [42] = system: HCC-2998 colon
# [43] = system: SF-268 CNS
# [44] = system: HT29 colon
# [45] = system: 786-0 renal
# [46] = system: K-562 leukemia
# [47] = system: A549 NSCLC
# [48] = system: OVCAR-4 ovarian
# [49] = system: SK-MEL-2 melanoma
# [50] = system: MDA-MB-231 breast
# [51] = system: MDA-MB-435
# [52] = system: OVCAR-8 ovarian
# [53] = system: SN12C renal
# [54] = system: MALME-3M melanoma
# [55] = system: NCI-H460 lung
# [56] = system: RXF 393 renal
# [57] = system: KM12 colon
# [58] = system: LOX IMVI melanoma
structure (smiles),measurement,setting,value
C=CC[Se]C(=O)c1cncc(C(=O)[Se]CC=C)c1,GI50,[1],2.73 µM
same,TGI,[1],7.74 µM
same,GI50,[2],2.45 µM
same,TGI,[2],6.38 µM
same,GI50,[3],0.261 µM
same,TGI,[3],0.756 µM
same,GI50,[4],1.55 µM
same,TGI,[4],3.16 µM
same,GI50,[5],1.36 µM
same,TGI,[5],2.65 µM
same,GI50,[6],1.68 µM
same,TGI,[6],3.1 µM
same,GI50,[7],1.71 µM
same,TGI,[7],3.24 µM
same,GI50,[8],1.74 µM
same,TGI,[8],3.21 µM
same,GI50,[9],1.94 µM
same,TGI,[9],6.82 µM
same,GI50,[10],2.88 µM
same,TGI,[10],10.5 µM
same,GI50,[11],3.02 µM
same,TGI,[11],27.1 µM
same,GI50,[12],0.386 µM
same,TGI,[12],1.5 µM
same,GI50,[13],1.68 µM
same,TGI,[13],3.72 µM
same,GI50,[14],2.42 µM
same,TGI,[14],7.28 µM
same,GI50,[15],1.79 µM
same,TGI,[15],3.35 µM
same,GI50,[16],2.64 µM
same,TGI,[16],7.67 µM
same,GI50,[17],2.14 µM
same,TGI,[17],5.14 µM
same,GI50,[18],1.8 µM
same,TGI,[18],3.46 µM
same,GI50,[19],0.431 µM
same,TGI,[19],1.53 µM
same,GI50,[20],1.43 µM
same,TGI,[20],3.03 µM
same,GI50,[21],2.22 µM
same,TGI,[21],4.73 µM
same,GI50,[22],1.65 µM
same,TGI,[22],3.03 µM
same,GI50,[23],1.31 µM
same,TGI,[23],2.82 µM
same,GI50,[24],0.782 µM
same,TGI,[24],2.22 µM
same,GI50,[25],1.39 µM
same,TGI,[25],2.96 µM
same,GI50,[26],3.3 µM
same,TGI,[26],8.93 µM
same,GI50,[27],1.95 µM
same,TGI,[27],3.81 µM
same,GI50,[28],1.46 µM
same,TGI,[28],3.08 µM
same,GI50,[29],1.71 µM
same,TGI,[29],3.14 µM
same,GI50,[30],3.57 µM
same,TGI,[30],47.8 µM
same,GI50,[31],1.03 µM
same,TGI,[31],2.44 µM
same,GI50,[32],3.28 µM
same,TGI,[32],10.3 µM
same,GI50,[33],1.81 µM
same,TGI,[33],3.31 µM
same,GI50,[34],1.94 µM
same,TGI,[34],3.68 µM
same,GI50,[35],1.89 µM
same,TGI,[35],3.4 µM
same,GI50,[36],1.8 µM
same,TGI,[36],3.54 µM
same,GI50,[37],3.65 µM
same,TGI,[37],10.6 µM
same,GI50,[38],1.71 µM
same,TGI,[38],3.69 µM
same,GI50,[39],2.21 µM
same,TGI,[39],5.55 µM
same,GI50,[40],0.525 µM
same,TGI,[40],2.23 µM
same,GI50,[41],0.544 µM
same,TGI,[41],1.8 µM
same,GI50,[42],1.06 µM
same,TGI,[42],2.26 µM
same,GI50,[43],2.23 µM
same,TGI,[43],6.82 µM
same,GI50,[44],3.03 µM
same,TGI,[44],10.9 µM
same,GI50,[45],1.85 µM
same,TGI,[45],3.27 µM
same,GI50,[46],3.15 µM
same,TGI,[46],10.7 µM
same,GI50,[47],0.434 µM
same,TGI,[47],> 100 µM
same,GI50,[48],1.99 µM
same,TGI,[48],3.85 µM
same,GI50,[49],1.92 µM
same,TGI,[49],3.79 µM
same,GI50,[50],1.8 µM
same,TGI,[50],4 µM
same,GI50,[51],1.88 µM
same,TGI,[51],3.79 µM
same,GI50,[52],1.51 µM
same,TGI,[52],2.94 µM
same,GI50,[53],0.628 µM
same,TGI,[53],1.92 µM
same,GI50,[54],1.92 µM
same,TGI,[54],4.86 µM
same,GI50,[55],0.382 µM
same,TGI,[55],3.07 µM
same,GI50,[56],2.17 µM
same,TGI,[56],5.18 µM
same,GI50,[57],1.34 µM
same,TGI,[57],2.76 µM
same,GI50,[58],1.74 µM
same,TGI,[58],3.35 µM

# — PubChem BioAssay (NCI)
